# Laboratory results from patent US20240327417A1, “HETEROCYCLIC COMPOUNDS” (BeiGene Switzerland GmbH, priority 2021, published 2024).
# Tests used:
# [1] = target: T1, Full length DGKζ (in-house protein M1-V929) (Homo sapiens, UniProt Q13574); assay: Biochemical DGK IC50 assay (ADP-Glo, lipid micelle substrate), DGKζ; details: 0.5 nM enzyme, 140 μM ATP, 80 μM DAG, 1 hour preincubation, 1 hour reaction, room temperature, read-out: IC50s for DGKζ
# T1 construct: His (N); TEV cleavage site (N); made in house; host or cells: Sf9 insect cells (baculovirus, Bac-to-Bac)
# Summary of the method: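 In-house full-length human DGKζ, baculovirus-expressed in Sf9 cells, was assayed with a DAG/PS lipid micelle substrate at room temperature. Buffer was 50 mM HEPES, 10 mM MgCl2, 0.01% BSA, 0.1 mM Na3VO4, 0.005% Tween-20, 0.01 mM CaCl2, with final compound 1.55˜10000 nM or 23.3˜150000 nM.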
# [2] = target: T2, Full length DGKα (D21-10BG, SignalChem) (Homo sapiens, UniProt P23743); assay: Biochemical DGK IC50 assay (ADP-Glo, lipid micelle substrate), DGKα; details: 7.5 nM enzyme, 140 μM ATP, 80 μM DAG, 1 hour preincubation, 1 hour reaction, room temperature, read-out: IC50s for DGKα
# T2 construct: Full length DGKα (D21-10BG, SignalChem); purchased SignalChem D21-10BG
# Summary of the method: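 Full-length enzyme was assayed by ADP-Glo on DAG/PS lipid micelles at room temperature in HEPES/MgCl2/CaCl2 buffer with BSA, Na3VO4 and Tween-20, using a 1 h reaction and luminescence read-out.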
# T2 sequence (P23743 whole entry): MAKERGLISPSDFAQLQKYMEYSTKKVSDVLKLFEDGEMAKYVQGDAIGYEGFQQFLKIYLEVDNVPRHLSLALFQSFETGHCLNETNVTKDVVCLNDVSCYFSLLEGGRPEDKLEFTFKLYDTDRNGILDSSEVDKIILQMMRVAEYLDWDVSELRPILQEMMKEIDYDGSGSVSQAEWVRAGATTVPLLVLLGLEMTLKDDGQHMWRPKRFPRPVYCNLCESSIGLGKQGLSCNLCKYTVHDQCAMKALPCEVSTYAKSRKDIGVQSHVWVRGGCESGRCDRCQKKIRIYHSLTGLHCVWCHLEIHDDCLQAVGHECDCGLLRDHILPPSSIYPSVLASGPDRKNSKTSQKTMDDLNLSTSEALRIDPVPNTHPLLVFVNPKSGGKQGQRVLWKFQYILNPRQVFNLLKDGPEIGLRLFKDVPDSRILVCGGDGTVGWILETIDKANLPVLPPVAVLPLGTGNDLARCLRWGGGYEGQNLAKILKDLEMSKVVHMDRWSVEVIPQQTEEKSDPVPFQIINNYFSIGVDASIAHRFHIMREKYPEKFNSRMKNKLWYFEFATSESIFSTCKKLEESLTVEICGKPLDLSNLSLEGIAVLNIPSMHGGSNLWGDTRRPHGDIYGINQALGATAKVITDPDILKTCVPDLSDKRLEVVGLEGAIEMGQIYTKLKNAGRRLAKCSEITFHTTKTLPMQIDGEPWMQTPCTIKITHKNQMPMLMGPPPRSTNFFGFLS
# T1 sequence (Q13574 1-929 isoform Q13574-4): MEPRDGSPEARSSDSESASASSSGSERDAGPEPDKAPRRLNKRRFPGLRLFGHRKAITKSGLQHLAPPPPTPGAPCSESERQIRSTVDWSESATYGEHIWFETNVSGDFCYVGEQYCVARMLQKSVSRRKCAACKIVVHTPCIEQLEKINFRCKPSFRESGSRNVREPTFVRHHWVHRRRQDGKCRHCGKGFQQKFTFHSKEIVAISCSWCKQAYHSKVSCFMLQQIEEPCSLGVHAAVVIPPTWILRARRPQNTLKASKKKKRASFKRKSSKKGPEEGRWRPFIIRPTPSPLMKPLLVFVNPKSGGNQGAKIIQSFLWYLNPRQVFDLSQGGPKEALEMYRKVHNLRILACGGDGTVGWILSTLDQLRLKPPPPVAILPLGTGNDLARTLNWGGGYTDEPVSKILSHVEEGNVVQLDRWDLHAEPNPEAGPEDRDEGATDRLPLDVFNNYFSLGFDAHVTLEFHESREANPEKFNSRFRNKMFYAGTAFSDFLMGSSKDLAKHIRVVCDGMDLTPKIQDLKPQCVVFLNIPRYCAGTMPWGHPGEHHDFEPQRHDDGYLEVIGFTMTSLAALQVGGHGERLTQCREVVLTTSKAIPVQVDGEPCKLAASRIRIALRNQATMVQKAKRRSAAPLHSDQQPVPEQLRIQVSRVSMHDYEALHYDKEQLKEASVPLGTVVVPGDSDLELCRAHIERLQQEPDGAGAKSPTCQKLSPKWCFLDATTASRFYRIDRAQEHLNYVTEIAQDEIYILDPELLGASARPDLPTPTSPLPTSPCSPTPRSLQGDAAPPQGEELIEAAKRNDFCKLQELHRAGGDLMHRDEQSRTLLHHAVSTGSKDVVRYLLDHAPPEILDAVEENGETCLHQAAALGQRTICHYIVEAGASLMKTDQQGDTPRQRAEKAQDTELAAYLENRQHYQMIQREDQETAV
IC50 [1] [nM],IC50 [2] [nM],Compound
8100,78,"CC[C@H]1CN(C(C)c2ccc3nc(C)sc3n2)[C@H](CC)CN1c1cc(=O)n(C)n2cc(C=NOC)nc12 (single isomer, unassigned) [Compound A124bc]"
2000,535,"CC#CCc1cn2c(n1)c(N1C[C@@H](CC)N(C(C)c3ccc4ncsc4c3F)C[C@@H]1CC)cc(=O)n2C (single isomer, unassigned) [Compound A117b]"
1210,2390,"CC[C@H]1CN(C(C)c2ccc3ncsc3c2F)[C@H](CC)CN1c1cc(=O)n(C)n2cc(CC#N)nc12 (single isomer, unassigned) [Compound A62b]"
35,1270,"CC(c1ccc2nccnc2c1)N1C[C@H](C)N(c2cc(=O)n(C)n3cc(CC#N)nc23)C[C@H]1C (single isomer, unassigned) [Compound A1a]"
1170,1070,"CC[C@H]1CN(C(C)c2ccc3nc(CC4CC4)sc3n2)[C@H](CC)CN1c1cc(=O)n(C)n2cc(CC#N)nc12 (single isomer, unassigned) [Compound A110a]"
> 10000,749,"CC[C@H]1CN(C(C)c2ccc3nc(C)sc3c2)[C@H](CC)CN1c1cc(=O)n(C)n2cc(C=NOC)nc12 (single isomer, unassigned) [Compound A123d]"
3,2250,"CC(c1ccc2c(c1)OC(C)(C)CO2)N1C[C@H](C)N(c2c(C#N)c(=O)n(C)n3cc(CC#N)nc23)C[C@H]1C (single isomer, unassigned) [Compound A27a]"
27,101,"[2H]C([2H])([2H])C(c1ccc2nc(C)sc2c1)N1C[C@H](CC)N(c2cc(=O)n(C([2H])([2H])[2H])n3cc(CC#N)nc23)C[C@H]1CC (single isomer, unassigned) [Compound A95a]"
11000,22000,"COC(C)c1cn2c(n1)c(N1C[C@@H](C)N(C(C)c3ccc4nccnc4c3)C[C@@H]1C)cc(=O)n2C (stereo partly drawn) [Compound A5, 8-((2S,5R)-2,5-dimethyl-4-(1-(quinoxalin-6-yl)ethyl)piperazin-1-yl)-2-(1-methoxyethyl)-5-methylimidazo[1,2-b]pyridazin-6(5H)-one]"
29,851,"CCc1nc2ccc(C(C)N3C[C@H](C)N(c4cc(=O)n(C)n5cc(CC#N)nc45)C[C@H]3CC)cc2s1 (single isomer, unassigned) [Compound A101a]"
57,339,"CC[C@H]1CN(C(C)c2ccc(C3CC3)nc2F)[C@H](CC)CN1c1cc(=O)n(C)n2cc(CC#N)nc12 (single isomer, unassigned) [Compound A42a]"
6.5,24,"CC[C@H]1CN(C(C)c2ccc3ncsc3c2)[C@H](CC)CN1c1cc(=O)n(C)n2cc(CC#N)nc12 (stereo partly drawn) [Compound A53, 2-(8-((2S,5R)-4-(1-(benzo[d]thiazol-6-yl)ethyl)-2,5-diethylpiperazin-1-yl)-5-methyl-6-oxo-5,6-dihydroimidazo[1,2-b]pyridazin-2-yl)acetonitrile]"
19,297,"CCc1nc2ccc(C(C)N3C[C@H](CC)N(c4cc(=O)n(C)n5cc(CC#N)nc45)C[C@H]3CC)cc2s1 (single isomer, unassigned) [Compound A100a]"
189,826,"CC[C@@H]1CN(c2cc(=O)n(C)n3cc(CC#N)nc23)[C@@H](C)CN1C(C)c1cc2sc(C)nc2cc1F (single isomer, unassigned) [Compound A60a]"
